Assays:
male SD rats = test: Effects on amount of urinary phosphorus in normal rats; assay type: in vivo; conditions: 0.5 g in feed (20 g/rat/day) containing 0.58% phosphorus, 5 days, vs control, FIG. 2
Protocol: Effects on Amount of Blood and Urinary Phosphorus in Normal Rats
Using male SD rats (aged 8 weeks), the experiments on suppressive effects for the increase of urinary phosphorus amount in the weakly basic anion exchange resin (Ionac A-365; Sybron Chemicals Co.) or calcium carbonate were carried out as follows.
Namely, after the rats were given with feed (20 g/rat/day) containing 0.3% phosphorus for 7 days, feed (20 g/rat/day) containing 0.58% phosphorus was mixed with 0.5 g of Ionac A-365 or calcium carbonate and the mix feed was further administered to the rats for 5 days. Further, urine was collected for 24 hours before the drug administration and 5 days after the drug administration, and the amount of urinary phosphorus was calculated based on the urinary phosphorus concentration and the amount of urine. The urinary phosphorus concentration was measured by an inorganic phosphorus measurement reagent (P Test Wako). The increased amount of urinary phosphorus excretion was calculated based on the obtained difference of urinary phosphorus amount between before drug administration and 5 days after the drug administration, and compared with that of the non-administration group (control). As for rats in each group, 6 rats in each were subjected to the experiments.

rats with ⅚ nephrectomy = test: Effects on blood phosphorus concentration and renal function in rats with 5/6 nephrectomy; assay type: in vivo, rat; conditions: 0.3 g in 15 g of feed, 12 weeks after nephrectomy, vs control
Protocol: Effects on Blood Phosphorus Concentration and Renal Function in Rats With ⅚ Nephrectomy
Using male SD rats (aged 9 weeks), the experiments on the effects for the lowering action of urinary phosphorus amount and the renal function in the weakly basic anion exchange resin (Ionac A-365; Sybron Chemicals. Co.) or calcium carbonate were carried out as follows.
Namely, ⅔ of the left kidney was removed, after 1 week the right kidney being totally removed to make rats with ⅚ nephrectomy. After 1 week, a mixed feed administration of calcium carbonate or Ionac A-365 started. As a powder feed for rat MF manufactured by Oriental Yeast was used, and the administration dose was made 0.3 g content in 15 g of the feed. 12 weeks after the preparation of rats with ⅚ nephrectomy, blood was collected from the caudal vein, and the blood phosphorus concentration was measured by an inorganic phosphorus measurement reagent (P Test Wako). Also, urine was collected for 24 hours before the nephrectomy and 12 weeks after the nephrectomy, and the urinary protein concentration being measured by a protein measurement reagent (Protein Assay Kit, Bio-lad). As for rats in each group, 9 rats in each were subjected to the experiments.

With `O=C([O-])[O-].[Ca+2]` [calcium carbonate] the “increase of urinary phosphorus excretion” value (male SD rats) was “significantly suppressed compared with that of control”, the blood phosphorus concentration (rats with ⅚ nephrectomy; FIG. 3) was “no significant difference in blood phosphorus concentration compared with control” and the “increase of urinary protein excretion amount” value (rats with ⅚ nephrectomy; FIG. 4) was “significantly suppressed compared with control”.
